pEC50: −log10 of the molar value.

As usually defined, the pEC50 is −log10 of the EC50, conventionally taken in molar units. Broadly, the EC50 is the midpoint of the concentration-response curve.

In the first experiment the test system is hypoxia-inducible endogenous VEGF expression. As to the kind of experiment: Hypoxia-inducible endogenous VEGF expression ELISA in HeLa cells, dose-response EC50 (Table 3). The experiment is classed as cell-based, human. The conditions noted are these: HeLa cells, hypoxic conditions (1% O2), 24-48 hours, VEGF in conditioned media; read-out: ELISA EC50. The protocol: The ability of the Compounds to modulate hypoxia-inducible endogenous VEGF expression may be analyzed as follows. VEGF protein levels may be monitored by an ELISA assay (R&D Systems). Briefly, HeLa cells may be cultured for 24-48 hours under hypoxic conditions (1% O2, 5% CO2, balanced with nitrogen) in the presence or absence of a Compound. The conditioned media may then be assayed by ELISA, and the concentration of VEGF calculated from the standard ELISA curve of each assay.
A dose-response analysis may be performed using the ELISA assay and conditions described above. The conditions for the dose-response ELISA are analogous to those described above. A series of, e.g., seven different concentrations may be analyzed. In parallel, a dose-response cytotoxicity assay may be performed using Cell Titer Glo (Promega) under the same conditions as the ELISA to ensure that the inhibition of VEGF expression was not due to the cytotoxicity.
(In general: In an ELISA, binding on a coated surface is turned into a signal by an enzyme label.)
For the molecule `O=C(Oc1ccc(Cl)cc1)N1CCc2c([nH]c3ccc(Cl)cc23)C1c1ccc(S(=O)(=O)N2CCOCC2)cc1` (centres unmarked) [Compound 450], the pEC50 was 7.40 to 8.10.

`O=C(Oc1ccc(Cl)cc1)N1CCc2c([nH]c3ccc(Br)cc23)C1c1ccc(C(F)(F)F)cc1` (centres unmarked) [Compound 570]: the pEC50 is greater than 8.10.

On to `CC(C)c1ccc(C2c3[nH]c4ccc(Br)cc4c3CCN2C(=O)Oc2ccc(Cl)cc2)cc1` (centres unmarked) [Compound 572], for which the pEC50 was greater than 8.10.

Still in this experiment, the particulars now being: Homo sapiens, HeLa, read-out: ELISA EC50 μM.
Regarding `O=C(CN1CCOCC1)Nc1ccc(C2c3[nH]c4ccc(Cl)cc4c3CCN2C(=O)Oc2ccc(Cl)cc2)cc1` (centres unmarked) [Compound 454], the EC50 was in the range of 0.008 to 0.04 µM.

As for `O=C(Oc1ccc(Cl)cc1)N1CCc2c([nH]c3ccc(Cl)cc23)C1c1ccc(OCC(O)CN2CCCC2)cc1` (centres unmarked) [Compound 462], the EC50 was 0.008 to 0.04 µM.

As to `CN(C)CCCOc1ccc(C2c3[nH]c4ccc(Cl)cc4c3CCN2C(=O)Oc2ccc(Br)cc2)cc1` (centres unmarked) [Compound 468], the EC50 lay within 0.008 to 0.04 µM.

As to `CN(C)CCCOc1ccc(C2c3[nH]c4ccc(Cl)cc4c3CCN2C(=O)Oc2ccc(Cl)cc2)cc1` (centres unmarked) [Compound 479], the EC50 is 0.04 to 0.2 µM.

Turning to `CN(C)CC(=O)Nc1ccc(C2c3[nH]c4ccc(Cl)cc4c3CCN2C(=O)Oc2ccc(Cl)cc2)cc1` (centres unmarked) [Compound 491], the EC50 fell in the range of 0.04 to 0.2 µM.

Consider `CN(C)CCCOc1ccc(C2c3[nH]c4ccc(Cl)cc4c3CCN2C(=O)Oc2ccccc2)cc1` (centres unmarked) [Compound 493], for which the EC50 fell in the range of 0.04 to 0.2 µM.

Consider `COc1ccc(OC(=O)N2CCc3c([nH]c4ccc(Cl)cc34)C2c2ccc(OCCCN(C)C)cc2)cc1` (centres unmarked) [Compound 501], for which the EC50 was 0.04 to 0.2 µM.

Take `Cc1ccc(OC(=O)N2CCc3c([nH]c4ccc(Cl)cc34)C2c2ccc(OCCCN(C)C)cc2)cc1` (centres unmarked) [Compound 502]: the EC50 was in the range of 0.04 to 0.2 µM.

On to `O=C1NC2CSC(CCCCC(=O)OCCOc3ccc(C4c5[nH]c6ccc(Cl)cc6c5CCN4C(=O)Oc4ccc(Cl)cc4)cc3)C2N1` (centres unmarked) [Compound 544], for which the EC50 was less than 0.008 µM.

The experiment is the same for the next values; noted with them: Homo sapiens; HeLa cells, hypoxic conditions (1% O2), 24-48 hours, VEGF in conditioned media; read-out: ELISA EC50.
Turning to `O=C(Oc1ccc(Cl)cc1)N1CCc2c([nH]c3ccc(Cl)cc23)C1c1ccc(F)cc1` (centres unmarked) [Compound 444], the pEC50 was 7.40 to 8.10.

As for `O=C(Oc1ccc(F)cc1)N1CCc2c([nH]c3ccc(Cl)cc23)C1c1ccc(F)cc1` (centres unmarked) [Compound 452], the pEC50 was 7.40 to 8.10.

Regarding `COc1ccc(OC(=O)N2CCc3c([nH]c4ccc(Cl)cc34)C2c2ccc(S(=O)(=O)N3CCOCC3)cc2)cc1` (centres unmarked) [Compound 455], the pEC50 is 7.40 to 8.10.

For the molecule `O=C(Oc1ccc(Cl)cc1)N1CCc2c([nH]c3ccc(Cl)cc23)C1c1ccc(OCC2CO2)cc1` (centres unmarked) [Compound 460], the pEC50 is 7.40 to 8.10.

Turning to `CC(=O)Oc1ccc(C2c3[nH]c4ccc(Cl)cc4c3CCN2C(=O)Oc2ccc(Cl)cc2)cc1` (centres unmarked) [Compound 463], the pEC50 is 7.40 to 8.10.

Take `COCCOc1ccc(C2c3[nH]c4ccc(Cl)cc4c3CCN2C(=O)Oc2ccc(OC)cc2)cc1` (centres unmarked) [Compound 465]: the pEC50 is 7.40 to 8.10.

Take `CCOC(=O)Nc1ccc(C2c3[nH]c4ccc(Cl)cc4c3CCN2C(=O)Oc2ccc(Cl)cc2)cc1` (centres unmarked) [Compound 467]: the pEC50 was 7.40 to 8.10.

Take `COCCOC(=O)Nc1ccc(C2c3[nH]c4ccc(Cl)cc4c3CCN2C(=O)Oc2ccc(Cl)cc2)cc1` (centres unmarked) [Compound 470]: the pEC50 was 7.40 to 8.10.

For the molecule `CC(C)C(=O)Nc1ccc(C2c3[nH]c4ccc(Cl)cc4c3CCN2C(=O)Oc2ccc(Cl)cc2)cc1` (centres unmarked) [Compound 482], the pEC50 is 6.70 to 7.40.

For `CC(C)OC(=O)Nc1ccc(C2c3[nH]c4ccc(Cl)cc4c3CCN2C(=O)Oc2ccc(Cl)cc2)cc1` (centres unmarked) [Compound 489], the pEC50 was 6.70 to 7.40.

`C=CC(=O)Nc1ccc(C2c3[nH]c4ccc(Cl)cc4c3CCN2C(=O)Oc2ccc(Cl)cc2)cc1` (centres unmarked) [Compound 500]: the pEC50 is 6.70 to 7.40.

With `O=C(O)c1ccc(C2c3[nH]c4ccc(Br)cc4c3CCN2C(=O)Oc2ccc(Cl)cc2)cc1` (centres unmarked) [Compound 519], the pEC50 is 6.00 to 6.70.

In the case of `O=C(Oc1ccc(Cl)cc1)N1CCc2c([nH]c3ccc(Cl)cc23)C1c1ccc(OCCO)cc1` (centres unmarked) [Compound 571], the pEC50 was 6.00 to 6.70.

Take `O=C(Oc1ccc(F)cc1)N1CCc2c([nH]c3ccc(Cl)cc23)C1c1ccc(O)cc1` (centres unmarked) [Compound 575]: the pEC50 is 6.00 to 6.70.

(Values after patent publication US20120157401A1, “METHODS FOR TREATING NEUROFIBROMATOSIS” (PTC Therapeutics, Inc., priority 2009, published 2012).)
